Experimental data taken from patent US20240254199A1, “MODIFIED MAMMALIAN CELLS” (Genentech, Inc., priority 2021, published 2024).

Legend:
Assay type in all cases: cell-based, Chinese hamster
[1] = test system: empty host CHO-K1 cells; assay: Seed train growth of empty host CHO-K1 cells with PDGFRa inhibitor and/or insulin
Protocol: 1.5 million cells were lysed in 1× NP40 buffer (10 mM Tris, pH 8.0, 0.5% NP40, 150 mM NaCl, 10 mM DTT and 5 mM MgCl2) containing protease inhibitor cocktails (Roche EDTA free mini-tablets cocktail) for 20 min on ice. Lysates were subjected to sodium dodecyl sulfate-polyacrylamide gel electrophoresis (SDS-PAGE) (4-12% Tris glycine) and transferred to nitrocellulose membrane. After blocking with 5% milk in tris-buffered saline (TBS)-0.1% Tween buffer, the membranes were blotted with respective antibodies. Blots were visualized using HRP-conjugated anti-rabbit anti-body and SuperSignal West Dura Extended Duration Substrate. The following inhibitors were used: ATF6i (10 μM Ceapin-A7 (Gallagher, et al., 2016)), PERKi (10 μM Compound 39 (Axten, et al., 2012)), IRE1i6 (10 μM 4u8c (Cross, et al., 2012)), IRE1i9 (10 μM in-house/Genentech), PDGFRi (5-20 μM Abcam, AG-1296). The following antibodies were used: anti-PDGFRa (Cell Signaling Technology (CST), D1E1E), rabbit anti-BiP (C50B12, Cell Signaling Technology, 3177), rabbit anti-PERK (CST, C33E10), mouse anti-o-actin-HRP (AC-15) (Abcam, ab49900), rabbit anti-phospho-Akt (Ser473) (CST, D9E), rabbit anti-Akt (CST, 5G3), rabbit cleaved caspase3 (CST, asp175), goat anti-human IgG-HRP (MP Biomedicals, 0855252), rabbit IRE1a (CST, 14C10), mouse anti-phospho-IRE1, mouse anti-XBP1, rabbit anti-Bax (Abcam, ab32503), rabbit anti-Bak (CST, D4E4), donkey anti-rabbit HRP (Jackson ImmunoResearch Laboratories, Inc., 711-035-152), rabbit anti-sod2 (CST, D3×8F)
(§1) It was previously shown that UPR-induced poor growth profiles correlated with a decrease in PDGFRa levels (FIGS. 19A and 19B) (Tung, et al., 2018). PDGFRa and insulin signaling pathways have overlapping downstream targets (FIG. 21A), however insulin signaling negatively regulates PDGFRa signaling (Cirri, et al., 2005). […]

[2] = test system: mAb2-expressing CHO-K1 cells; assay: Fed-batch production of mAb2-expressing CHO cell line with PDGFRa inhibitor and/or insulin; conditions: added on Day 3 of fed-batch production
Protocol: Fed-batch production cultures were performed as disclosed here and below in Example 2, with proprietary chemically defined medium using different vessels (e.g., tube-spin and AMBR15) along with bolus feeds on Days 3, 7 and 10 as previously mentioned (Hsu, Aulakh, Traul, & Yuk, 2012). Anti-cell aggregation agent was used in all cultures during production assay to prevent cell aggregation due to the release of DNA from dying cells. Cells were seeded at low (1-2×10^6 cells/mL) or high (10×10^6 cells/mL) seeding densities using lean or rich production media. Cultures were temperature shifted from 37° C. to 35° C. on Day 3. Titers were determined using Protein-A affinity chromatography with UV detection. Percent viability and viable cell count were determined using a Vi-Cell XR instrument (Beckman Coulter Item #383721).
as §1

[3] = test system: PDGFRa; assay: PDGFRa protein (western blot) and mRNA (qPCR) levels upon chemical UPR induction; conditions: seed train, mAb1-expressing CHO DG44 and CHO-K1, optimal pH
Protocol: 1.5 million cells were lysed in 1× NP40 buffer (10 mM Tris, pH 8.0, 0.5% NP40, 150 mM NaCl, 10 mM DTT and 5 mM MgCl2) containing protease inhibitor cocktails (Roche EDTA free mini-tablets cocktail) for 20 min on ice. Lysates were subjected to sodium dodecyl sulfate-polyacrylamide gel electrophoresis (SDS-PAGE) (4-12% Tris glycine) and transferred to nitrocellulose membrane. After blocking with 5% milk in tris-buffered saline (TBS)-0.1% Tween buffer, the membranes were blotted with respective antibodies. Blots were visualized using HRP-conjugated anti-rabbit anti-body and SuperSignal West Dura Extended Duration Substrate. The following inhibitors were used: ATF6i (10 μM Ceapin-A7 (Gallagher, et al., 2016)), PERKi (10 μM Compound 39 (Axten, et al., 2012)), IRE1i6 (10 μM 4u8c (Cross, et al., 2012)), IRE1i9 (10 μM in-house/Genentech), PDGFRi (5-20 μM Abcam, AG-1296). […]
An interesting phenomenon was previously described where activation of UPR in seed train culture, triggered by lower pH conditions in a particular CHO cell line, negatively affected culture growth in production media at target pH (Tung, et al., 2018). When exposed to low pH conditions, high intracellular BiP levels were detected in this cell line that correlated to low growth profiles during production and poor bioprocess outcomes (Tung, et al., 2018). […]

With `COc1cc2ncc(-c3ccccc3)nc2cc1OC` [PDGFRa inhibitor, AG-1296] the “reduction of cell growth” value ([1]; 20 μM, empty host CHO-K1 cells, seed train media, 4 days) was “approximately 50%” and the “cell growth and viability in fed-batch production” value [2] was “significantly decreased cell growth, without affecting cell viability”.
In the case of Tunicamycin, the “PDGFRa levels (protein and mRNA)” value [3] is reported as “reduced at both the protein and mRNA levels”.
With insulin the Akt phosphorylation ([1]; insulin added to cultures with PDGFRa inhibitor, western blot) was “increased Akt phosphorylation”, the “cellular growth of cultures treated with the PDGFRa inhibitor” value ([1]; insulin added to seed train cultures with PDGFRa inhibitor) was “partially rescued cellular growth” and the “cell growth and viability in fed-batch production” value [2] was “partially rescued the observed cell growth inhibition”.
